# Laboratory results: patent US11337449B2, “Compositions and their use” (NESTEC S.A., priority 2015, dated 2022)
# What was measured:
# [1] = system: brain myelination (myelin water fraction); test: Cross-sectional correlation of infant formula nutrient content with brain myelination (myelin water fraction, mcDESPOT MRI); type: in vivo, human; conditions: children up to 5 years fed infant formulas
# Method: MRI (Magnetic Resonance Imaging): MRI brain scans of infants and children between 0 and 5 years were acquired using a white matter imaging technique. This technique provides a quantitative measure, the Myelin Water Fraction (MWF), which is a surrogate marker of myelin content in the brain. When mapped as a function of time across early childhood, myelination trajectories can be generated.
# Infant formula composition: six infant formulas fed to infants participating in a study were analyzed for their composition/level of myelin-relevant nutrients.
# Each infant was scanned using the mcDESPOT (multicomponent Driven Equilibrium Single Pulse Observation of T1 and T2) white matter imaging technique Deoni et al. (Magn. Reson. Med. 2008, 60:1372-1387), which provides a quantitative measure of the myelin water fraction (MWF)—a measure of myelin content—at each point throughout the brain. All infants were scanned during natural (i.e. non-sedated) sleep using acoustically-muffled mcDESPOT imaging protocols. Total imaging times ranged from 19 minutes for the youngest toddlers to 24 minutes for the older 4 year-old children.
# Following image alignment, non-brain signal removal, and correction for main and transmit magnetic field (B0 and B1) inhomogeneities, a three-pool signal model (comprising the myelin-associated water; intra-extra axonal water; and a non-exchanging free-water pool) was fit to the mcDESPOT data to derive voxel-wise MWF maps.
# Each child's map was then non-linearly aligned to a study specific template. White matter masks, corresponding to 5 bilateral regions (frontal, temporal, occipital, parietal, and cerebellar WM) as well as the body, genu, and splenium of the corpus callosum were created from common databases, registered to the common template, and superimposed onto each child's MWF map. Mean values for each region were then determined for each child and used for subsequent developmental analysis and trajectory modeling.
# From the cohort described above, children up to 5 years of age that were fed different infant formulas during infancy were included in a large correlation analysis to examine the relationship between formula nutrient composition and brain myelination. The 6 most frequently used formulas in that cohort were analyzed for their nutritional composition. A single general linear model (GLM) was constructed that modeled all quantified nutrients and child age.
# Spearman rank correlations were then calculated between the nutrient content and myelin content value (adjusted for child age) at each image voxel, or point within the brain. Significance was defined as p<0.05 corrected for type 1 error using a cluster based correction approach. An association or trend was defined as p<0.15. […] To reduce the number of nutritional components in the model, we examined the inter-nutritional correlation. Using a conservative threshold of 0.9, we excluded nutritional components that were highly correlated with each other across the various formulas.
# [2] = system: neural progenitor cell (NPCs) from E14 mouse neocortex; test: Differentiation assay: quantification of neuronal and glial marker expression in monolayer NPC culture; type: cell-based; conditions: 9 d culture; for astrocyte cell density (astrocytic): GFAP normalized to DAPI
# Method: Generation of neural progenitor cell (NPCs) libraries: dissociation of E14 mouse neocortex E14 pup brains were harvested and placed in ice cold DPBS(1×)+10% Pen/Strep, then they were dissected using a dissecting microscope. From each pup, one brain hemisphere was placed in 2 ml of Neurobasal media/10% P/S/10× Hepes and another brain hemisphere was placed in another tube. The tissue from each tube was aseptically and manually dissociate into single cells, neurobasal complete medium was added and centrifuged at […] for 5 min. The tissue was then re-suspended in neurobasal complete media with GF and placed in a corning suspension culture dish 100 mm×20 mm (#430591). […] Plating Cells in 24 Well Plate for Monolayer Differentiation or EdU Incorporation Assays 24 well glass bottom plates (Mat Tek […]-1.0-13-F Case, glass bottom 24 well plates) were coated with poly-L-ornithin (Sigma P4957) and Fibronection (Sigma F1141) before use in the assay below. Cells were plated (10,000 cells per well) in Complete media with GF for 24 hours (500 ul per well). […] Differentiation Assay: Quantification of Neuronal, Glial and NPC Marker Expression After 24 hours, it was ensured that cells were attached to the plate, then the medium was carefully removed. […] Note: medium contains no GF. […] The cells were culture for 9 d in media plus 2% Nu Serum, the medium was changed every 2nd day. For fixation and subsequent immunohistochemical analysis the medium was removed, the cells were rinsed once with 1×PBS for 5 min, and fixed with 4% PFA in 1×PBS for 15 min at 4° C. The cells were then washed twice with 1×PBS for 5 min, left in 1×PBS, wrapped in foil and left overnight at 4C, or they were immediately primary antibody staining was carried out. PBS was removed and enough AB staining solution (1% Goat serum, 1×PBS, and 0.1% triton X) was added to cover the bottom, the block was kept at room temp for 1 hour. Primary antibody dilutions were made in appropriate amount of AB staining solution, 250 ul per well (the antibodies were only kept out on ice for a short time, mouse anti-MAP2 or TUJ1 1:500 (neuron marker), rabbit anti-GFAP (glial marker) 1:1000, chicken anti-Nestin CFP (EGFP antibody (progenitor cell marker)) 1:1000. AB staining solution was removed and a solution of primary antibodies was added to each chamber. The cells were wrapped in foil and kept overnight 4° C. The cells were then washed with 400 ul of AB staining solution for 5 min once to remove primary antibodies. Secondary antibody solutions were made (enough for 250 ul of each chamber) (Goat anti-mouse alexa 488 1:2000, anti-rabbit Cy3 (1:500), anti-chicken alexa 647 1:500, and 1:5000 Dapi). The cells were incubated at room temp for 1 hour in the dark and washed 2 time in AB staining solution for five mins. They were then kept at 4° C. or Imaged using a GE Cytell imager or LSM 710, Zeiss confocal microscope and analyze with ImageJ software (National Institutes of Health). Microtubule-Associated Protein 2 (MAP2), Neuronal Beta-Tubulin III(TuJ1), Glial Fibrillary Acidic Protein (GFAP), and Nestin CFP (EGFP Antibody). Each marker expression was measured on collected images (integrated density measure in ImageJ) and normalized to DAPI fluorescence, marking all nuclei (integrated density measure). Octanoic Acid were labeled with neuronal beta-tubulin III (TuJ1), subsequent compounds were labeled with Microtubule-associated protein 2 (MAP2).
# [3] = system: neural progenitor cell (NPCs) from E14 mouse neocortex; test: Neurosphere counts in 96-well plates; type: cell-based; conditions: Low (Dose 1: 10 nM); cells grown 2 days
# Method: Generation of neural progenitor cell (NPCs) libraries:
# E14 pup brains were harvested and placed in ice cold DPBS(1×)+10% Pen/Strep, then they were dissected using a dissecting microscope. From each pup, one brain hemisphere was placed in 2 ml of Neurobasal media/10% P/S/10× Hepes and another brain hemisphere was placed in another tube.
# The tissue from each tube was aseptically and manually dissociate into single cells, neurobasal complete medium was added and centrifuged at 130G for 5 min. The tissue was then re-suspended in neurobasal complete media with GF and placed in a corning suspension culture dish 100 mm×20 mm (#430591). Cells were passage twice using a 1:3 ratio, after what they were centrifuged (130 g 5 min), resuspended in freezing media (10% DMSO and neurobasal complete media, no GF) and frozen in liquid nitrogen (LN2).
# Plating Cells in 96-Well Plates for Neurosphere Counts and Diameters Only
# 3-4 mLs of cells were taken out of the tilted plate and add to a 15 ml conical. Some of the remaining media was used to rinse down the plate. All remaining media was drawn up and put into a 15 ml conical tube, and Spun at 130G for 5 min. All media was removed. […]
# 1. […] Imaging was carried out using a GE Cytell imager or LSM 710, Zeiss confocal microscope and the diameters of neurospheres with ImageJ software (National Institutes of Health) was analysed.
# [4] = system: neural progenitor cell (NPCs) from E14 mouse neocortex; test: Monolayer culture NPC proliferation assay (EdU incorporation / DAPI); type: cell-based; conditions: lowSM (Dose 1: 10 nM); 3 days culture
# Method: Monolayer Culture NPC Proliferation Assay (Incorporation of EdU—S Phase Marker)
# After 24 h, it was ensured that cells had attached to the plate then the medium was carefully removed. 500 μL of compound media plus GF. was added. The cells were cultured for 3 days in appropriate media.
# Control and compound media was made with #2 media and contains 29 uM Choline, Low (5 uM) and medium (70 uM) choline media was made with #3 media.
# EDU incorporation was measured using Click-IT® EdU Alexa Fluor® 555 Imaging Kit (Life technologies, #c10338).
# At the end of day 3 EdU was added to each well at 10 μM for 30 minutes prior to fixation.
# For fixation and subsequent immunohistochemical analysis, the medium was removed, the cells were rinsed once with 1×PBS for 5 min, and fixed with 4% PFA in 1×PBS for 15 min at 4° C., then the cells were washed twice with 1×PBS for 5 min, left in 1×PBS, wrapped in foil and leave overnight at 4° C., or staining was proceeded with.
# PBS was removed and enough AB staining solution (1% Goat serum, 1×PBS, and 0.1% triton X) added to cover the bottom, the block was kept at room temp for 1 hour. The cells were stained for EDU. The cells were Incubated for 30 min at room temp, in the dark. The cells were washed with 1×PBS and stained with Dapi 1:5000 ul for 15 min. […]
compound,measurement,setting,value
"CCCCC/C=C\C/C=C\C/C=C\C/C=C\CCCC(=O)O [AA, arachidonic acid]",association of nutrient with myelination (myelin water fraction) over time in the brain,[1],an association with myelination (myelin water fraction) was observed over time in the brain
"CCCCCCCC(=O)O [Octanoic acid, Octanoic Acid]",astrocyte cell density (astrocytic),[2]; HighOA (Dose 3: 250 μM),7.9
same,Neuronal Cell density (Neuronal),"[2]; HighOA (Dose 3: 250 μM), TuJ1 normalized to DAPI",1.7
same,astrocyte cell density (astrocytic),[2]; lowOA (Dose 1: 10 μM),3.7
same,Neuronal Cell density (Neuronal),"[2]; lowOA (Dose 1: 10 μM), TuJ1 normalized to DAPI",1.2
same,astrocyte cell density (astrocytic),[2]; medOA (Dose 2: 50 μM),6.1
same,Neuronal Cell density (Neuronal),"[2]; medOA (Dose 2: 50 μM), TuJ1 normalized to DAPI",1.8
"CCCCCCCCCCCCCCCCCC(=O)O [Stearic acid, Stearic Acid]",astrocyte cell density (astrocytic),[2]; highSA (Dose 3: 10 μM),0.85
same,Neuronal Cell density (Neuronal),"[2]; highSA (Dose 3: 10 μM), MAP2 normalized to DAPI",0.64
same,astrocyte cell density (astrocytic),[2]; lowSA (Dose 1: 100 nM),0.68
same,Neuronal Cell density (Neuronal),"[2]; lowSA (Dose 1: 100 nM), MAP2 normalized to DAPI",0.54
same,astrocyte cell density (astrocytic),[2]; medSA (Dose 2: 1 μm),0.81
same,Neuronal Cell density (Neuronal),"[2]; medSA (Dose 2: 1 μm), MAP2 normalized to DAPI",0.66
[Ca+2] [calcium],association of nutrient with myelination (myelin water fraction) over time in the brain,[1],an association with myelination (myelin water fraction) was observed over time in the brain
[Mg+2] [magnesium],association of nutrient with myelination (myelin water fraction) over time in the brain,[1],an association with myelination (myelin water fraction) was observed over time in the brain
[P] [phosphorus],association of nutrient with myelination (myelin water fraction) over time in the brain,[1],an association with myelination (myelin water fraction) was observed over time in the brain
[Zn] [zinc],association of nutrient with myelination (myelin water fraction) over time in the brain,[1],an association with myelination (myelin water fraction) was observed over time in the brain
Sphingomyelin,"number of neurospheres, Average (Mean)",[3],94
same,association of nutrient with myelination (myelin water fraction) over time in the brain,[1],an association with myelination (myelin water fraction) was observed over time in the brain
same,neuronal proliferation (DAPI),[4],280
iron,association of nutrient with myelination (myelin water fraction) over time in the brain,[1],an association with myelination (myelin water fraction) was observed over time in the brain
phosphatidylcholine,association of nutrient with myelination (myelin water fraction) over time in the brain,[1],an association with myelination (myelin water fraction) was observed over time in the brain
phosphatidylinositol,association of nutrient with myelination (myelin water fraction) over time in the brain,[1],an association with myelination (myelin water fraction) was observed over time in the brain
vitamin B12,association of nutrient with myelination (myelin water fraction) over time in the brain,[1],an association with myelination (myelin water fraction) was observed over time in the brain
